Measurements reported in the RepoRT retention time repository (doi:10.1021/pr300673x).

Experiment: RP, 50 × 2.1 mm, 1.7 µm, 0.5 mL/min, estimated dead time 0.22 min; A: 98% water + 2% acetonitrile + 0.1% formic acid, pH 3; B: 2% water + 98% acetonitrile + 0.1% formic acid, pH 3; gradient (min/%B) 0/0 0.5/0 4/60 8/100 9/100 9.2/0 10/0
Details: stereoisomer not certain

LC retention time [min] | SMILES
0.883 | NC(N)=NCCC(=O)O [3-guanidinopropionic acid]
3.89 | CC(CCC(=O)NCCS(=O)(=O)O)C1CCC2C3C(O)CC4CC(O)CCC4(C)C3CCC12C (stereo not given) [taurochenodeoxycholic acid (TCDCA)]
6.24 | CCCCCCCCC=CCCCCCCCC(=O)OC(CC(=O)[O-])C[N+](C)(C)C (stereo not given) [oleoylcarnitine]
7.44 | CCCCCC=CCC=CCCCCCCCC(=O)O [octadecadienoic acid]
4.3 | CC(CCC(=O)NCC(=O)O)C1CCC2C3C(O)CC4CC(O)CCC4(C)C3CC(O)C12C (stereo not given) [glycocholic acid (GCA)]
4.79 | CC(CCC(=O)NCC(=O)O)C1CCC2C3C(O)CC4CC(O)CCC4(C)C3CCC12C (stereo not given) [glycochenodeoxycholic acid (GCDCA)]
4.28 | CC(CCC(=O)NCC(=O)O)C1CCC2C3CCC4CC(O)CCC4(C)C3CC(O)C12C (stereo not given) [glycodeoxycholic acid (GDCA)]
5.98 | CCCCCC=CCC=CCCCCCCCC(=O)OC(CC(=O)[O-])C[N+](C)(C)C (stereo not given) [O-linoelaidylcarnitine]
5.71 | CCCCCCCCCC(=O)O[C@H](CC(=O)[O-])C[N+](C)(C)C [O-decanoyl-L-carnitine]
5.12 | CCCCCCCC(=O)O[C@H](CC(=O)[O-])C[N+](C)(C)C [O-octanoyl-R-carnitine]
4.28 | NC(N)=NCCC[C@H](NCCC(=O)O)C(=O)O [L-N2-(2-carboxyethyl)arginine]
4.78 | CC(CCC(=O)O)C1CCC2C3CC(O)C4CC(O)CCC4(C)C3CCC12C (stereo not given)
6.87 | CC(=CCCC(C)C1CCC2C3C(O)CC4CC(O)CCC4(C)C3CCC12C)C(=O)O (racemic)

Second part, the molecule before the results:

SMILES | LC retention time [min]
C=CC1=C(C)C(=O)N=C1C=c1[nH]c(=Cc2[nH]c(CC3NC(=O)C(C=C)=C3C)c(C)c2CCC(=O)O)c(CCC(=O)O)c1C (stereo not given) [15,16-dihydrobiliverdin] | 7.42
C=CC1=C(C)C(=Cc2[nH]c(Cc3[nH]c(C=C4NC(=O)C(C)=C4C=C)c(C)c3CCC(=O)O)c(CCC(=O)O)c2C)NC1=O [4E,15Z-bilirubin IXa] | 7.62
CCCCCCCCCCCCCC=CC(O)C(COP(=O)(O)O)NC(=O)CCCCCCCCCCC (stereo not given) [CerP(d18:1/12:0)] | 7.37
CC(=O)C(CCCCN)NS(=O)(=O)c1ccc(C)cc1 [N-tosyl-L-lysinyl methyl ketone] | 7.42
CCCCCCCCC=CCCCCCCCCCC(=O)OCC(O)COP(=O)([O-])OCC[N+](C)(C)C (stereo not given) [LysoPC(20:1)] | 6.88
CCCCCCCCCCCCCCCCOCC(O)COP(=O)([O-])OCC[N+](C)(C)C (stereo not given) [PC(O-16:0/0:0)] | 6.42
CCCCCCCCCCCCCCCCCC(O)CC(=O)O (stereo not given) [3-hydroxyeicosanoic acid] | 7.39
CCCCCCCCC=CCCCCCCCC(N)=O [oleamide] | 7.16
CC(=O)Cc1ccccc1 [phenylmethyl methyl ketone] | 3.31
[NH3+]C(Cc1ccccc1)C(=O)NC(Cc1ccccc1)C(=O)[O-] (stereo not given) [Phe-Phe] | 2.91
CCCCCC=CCC=CCC=CCC=CCCCC(=O)OCC(O)COP(=O)([O-])OCC[N+](C)(C)C (stereo not given) [LysoPC(20:4)] | 7.74
CCCCCCCCCCCCCCCC(=O)OC(CC(=O)[O-])C[N+](C)(C)C (stereo not given) [palmitylcarnitine] | 6.15
